Like-named read-outs stand apart in the source and are kept apart here.
Assays:
[1] = target: T1, RIN1::ABL1 interaction (RIN1-SBP / ABL1-eGFP) (Homo sapiens, UniProt P00519+Q13671); assay: TR-FRET assay of RIN1::ABL binding; conditions: for IC50: 21 hits selected for cell-based assay, concentration-response curves in triplicate
T1 construct: The ABL1 amino terminus was amplified from AblWT1-531 (gift of Dr. John Kuriyan); TEV site-ProtA-Flag (C, cleaved yes); made in house; host or cells: Sf9 insect cells (baculovirus, pFastBac1)
T1 sequence (P00519 1-531 isoform P00519-2): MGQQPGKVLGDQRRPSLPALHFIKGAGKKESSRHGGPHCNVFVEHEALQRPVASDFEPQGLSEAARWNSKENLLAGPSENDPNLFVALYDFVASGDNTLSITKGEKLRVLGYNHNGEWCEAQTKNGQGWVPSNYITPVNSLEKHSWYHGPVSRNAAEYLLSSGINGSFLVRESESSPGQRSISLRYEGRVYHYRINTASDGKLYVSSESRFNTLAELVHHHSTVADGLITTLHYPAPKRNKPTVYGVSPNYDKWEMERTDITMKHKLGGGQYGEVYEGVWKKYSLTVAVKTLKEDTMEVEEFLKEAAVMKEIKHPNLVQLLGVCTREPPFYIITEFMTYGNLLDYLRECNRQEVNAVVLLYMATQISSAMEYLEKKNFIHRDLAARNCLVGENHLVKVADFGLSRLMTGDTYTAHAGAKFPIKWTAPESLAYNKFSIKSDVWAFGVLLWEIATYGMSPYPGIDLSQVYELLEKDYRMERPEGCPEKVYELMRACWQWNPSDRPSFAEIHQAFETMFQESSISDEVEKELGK
T1 sequence (Q13671 whole entry): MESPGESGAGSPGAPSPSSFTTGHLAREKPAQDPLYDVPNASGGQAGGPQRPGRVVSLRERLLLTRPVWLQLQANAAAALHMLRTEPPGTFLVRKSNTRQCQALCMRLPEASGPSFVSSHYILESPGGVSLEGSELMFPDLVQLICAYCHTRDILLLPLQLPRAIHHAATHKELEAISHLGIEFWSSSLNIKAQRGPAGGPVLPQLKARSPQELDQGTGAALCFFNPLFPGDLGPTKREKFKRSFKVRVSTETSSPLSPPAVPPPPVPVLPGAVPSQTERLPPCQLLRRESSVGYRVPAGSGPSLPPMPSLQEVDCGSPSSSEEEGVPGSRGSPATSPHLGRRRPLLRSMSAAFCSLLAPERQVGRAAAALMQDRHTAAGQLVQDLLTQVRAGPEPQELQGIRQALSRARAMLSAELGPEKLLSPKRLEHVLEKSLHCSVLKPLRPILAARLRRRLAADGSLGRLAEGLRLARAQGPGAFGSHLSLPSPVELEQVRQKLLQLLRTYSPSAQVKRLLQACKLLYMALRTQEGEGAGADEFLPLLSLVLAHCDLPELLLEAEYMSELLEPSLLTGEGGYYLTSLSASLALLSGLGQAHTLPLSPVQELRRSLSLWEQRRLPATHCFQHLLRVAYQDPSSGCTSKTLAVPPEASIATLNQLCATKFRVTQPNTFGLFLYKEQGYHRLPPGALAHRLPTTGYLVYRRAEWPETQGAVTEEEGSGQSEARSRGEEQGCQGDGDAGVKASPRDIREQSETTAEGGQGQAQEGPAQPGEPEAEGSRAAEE
Method: To measure binding between purified RIN1 and ABL proteins we designed a quantitative TR-FRET based assay.
The assay readout was calculated as a ratio of donor and acceptor emissions, a measurement independent of donor and acceptor concentrations that allows for reliable comparison across assays. Assay components were mixed in kinase buffer and incubated for one hour at room temperature to allow for RIN1-Y^36 phosphorylation by ABL1 and subsequent formation of a stable divalent interaction between these proteins. Each multi-well assay plate included negative control samples (streptavidin-terbium, ABL-eGFP and ATP without RIN1-SBP). […]

[2] = system: MAPK1/3 phosphorylation in K562 cells; assay: pMAPK in K562 (immunoblot pMAPK1/3 / MAPK1/3); assay type: cell-based, human; conditions: for %inhibition of MAPK1/3 phosphorylation (pMAPK/MAPK ratio): 10 μM, 4 hours at 37°C, vs DMSO control, six biological replicates
Method: […] Each compound was tested with six biological replicates. Band intensity was quantified using LI-COR Odyssey, and the ratio of pMAPK/MAPK signal intensity is graphed for each compound and its DMSO control. Compounds are identified by their PubChem CID number.
Membranes were scanned and signal intensity quantified using a Li-Cor Odyssey scanner. To quantify RIN1 expression, signal intensities were first normalized to the housekeeping gene, tubulin. Phospho-MAPK1/3 signal intensities were normalized to total MAPK1/3. Changes in protein expression or phosphorylation were calculated as fold-change compared to control vector.
K562 with vector or RIN1 overexpression lentivirus were previously described. To analyze MAPK1 phosphorylation, confluent K562 cells were lysed in NP-40 buffer and immunoblotted. […] Cells from each well were harvested, lysed in 400 µL NP-40 and immunoblotted.
To test each compound, 5x10^5 K562 cells were plated on a 10 cm tissue culture plate and incubated for 3 days. Cells were harvested and the volume brought to 12 mLs with fresh medium. 1 mL of the cells was distributed into each well of a 12-well tissue culture plate. In 6 of the wells, 10 µL of 1 mM compound was added per well. 10 µL of DMSO was added to the remaining wells and mixed by pipetting up and down. Cells were incubated at 37°C and 5% CO2 for 4 hours. After incubation, cells were harvested from each well, lysed in 150 µL of RIPA buffer and analyzed as above.

K562 cells = assay: K562 proliferation assay (MTS); assay type: cell-based, human; conditions: dose-response 3.125-100 μM, 48 hours, triplicate
Method: K562 cells were plated 3x10^4 cells/well in 96-well plates. Cells were treated with DMSO or test compound in dose-response (100, 50, 25, 12.5, 6.25, 3.125 μM) to a final DMSO concentration of 1%. After 48 hours of incubation at 37°C, cell proliferation was assessed by MTS assay (Promega CellTiter 96 AQueous One Solution) according to the manufacturer’s protocol. Absorbance at 490nm was read on a PerkinElmer Victor3 plate reader. Experiments were performed in triplicate.
K562 cells were treated with DMSO or test compound in dose-response. After 48 hours of incubation at 37°C, cell proliferation was assessed by MTS assay. Growth in the presence of test compound was normalized to DMSO-treated K562 cells and results are presented as % of growth relative to control. Experiments were performed in triplicate. (PDF) Click here for additional data file.

native ABL1 = system: native ABL1; design: method as in PMID 16415863, PMID 20072125; conditions: cited from earlier work
[3] = target: T2, ABL1-eGFP (CRK substrate) (Homo sapiens, UniProt P00519); assay: In vitro kinase assay for direct ABL inhibitors; assay type: biochemical; conditions: 10 μM test compound, 0.5 nM ABL-eGFP, 2 μM CRK, 30 minutes at 30°C, anti-phosphotyrosine immunoblot
T2 construct: The ABL1 amino terminus was amplified from AblWT1-531 (gift of Dr. John Kuriyan); made in house; host or cells: Sf9 insect cells (baculovirus, pFastBac1)
T2 sequence (P00519 1-531 isoform P00519-2): as the sequence (P00519 1-531 isoform P00519-2) above
Method: To identify these direct ABL kinase inhibitors, we screened the compounds using an in vitro kinase assay. Purified ABL1-eGFP was incubated with CRK, a well-characterized substrate, in kinase buffer containing ATP.
0.5 nM purified ABL-eGFP was mixed with 2 μM CRK and 10 μM test compound and incubated in kinase buffer for 30 minutes at 30°C. Samples were analyzed by immunoblot using anti-phosphotyrosine. All the hits were screened, and a representative immunoblot is shown here.
The kinase assay to identify direct ABL kinase inhibitors from UCLA MSSR and TSRI hits was performed as described in PubChem BioAssay AID 624303 (https://pubchem.ncbi.nlm.nih.gov/assay/assay.cgi?aid=624303). Purified His6-CrkII was expressed and purified as previously described.

[4] = S2 Table, TR-FRET assay, maximal inhibition, read-out: Max response (%)

Row | Structure (SMILES) | IC50 ([1]; S2 Table) [nM] | Emax [1, 4] [%] | %inhibition of MAPK1/3 phosphorylation (pMAPK/MAPK ratio) [2] [%] | K562 proliferation (% growth relative to DMSO control) (K562 cells) | other results
1 | COc1ccc(C(=O)N2CCC(C(=O)Nc3ccc(CC(=O)Nc4ccc(C(=O)N(C)C5CC5)cc4)cc3)CC2)cc1 [compound 56844186] | 3670 | 84.8 | 75 ± 33 | decrease K562 proliferation | 
2 | NC(=O)c1cccc(-c2cc(Nc3ccc(OC(F)(F)F)cc3)ncn2)c1 [GNF-2] |  |  |  |  | activity against native ABL1 (native ABL1): no activity
3 | COc1ccc(CCNc2cc(=O)nc(N)[nH]2)cc1 [CID 1532134, 2-amino-6-[2-(4-methoxyphenyl)ethylamino]-1H-pyrimidin-4-one] |  |  |  |  | ABL kinase activity: CRK and ABL phosphorylation [3]: no activity
4 | COc1cccc(CSc2nnc(CSc3nc4nc(C)cc(C)n4n3)s2)c1 [compound 1818178] | 9570 | 95.7 | 25 ± 20 | decrease K562 proliferation | 
5 | Cc1ccc(NC(=O)c2ccc(CN3CCN(C)CC3)cc2)cc1Nc1nccc(-c2cccnc2)n1 [imatinib, reference compound] |  |  |  |  | MAPK1/3 phosphorylation signal ([2]; 1 μM imatinib, 1 and 4 hours at 37°C): rapidly decreased
6 | O=C(O[C@@H]1Cc2c(O)cc(O)cc2O[C@@H]1c1cc(O)c(=O)c2c(O)c(O)cc([C@H]3Oc4cc(O)cc(O)c4C[C@H]3OC(=O)c3cc(O)c(O)c(O)c3)c2c1)c1cc(O)c(O)c(O)c1 [theaflavin-3,3’-digallate] |  |  |  |  | Activity in the TR-FRET screening assay (FRET ratio) ([1]; primary screen): decrease the FRET ratio; ABL kinase activity: CRK and ABL phosphorylation [3]: directly inhibits ABL trans-phosphorylation of CRK as well as ABL
7 | CN(C(=O)c1ccc(NC(=O)Cc2ccc(NC(=O)C3CCN(C(=O)c4ccccc4)CC3)cc2)cc1)C1CC1 [compound 44142745] | 2530 | 86.2 | 52 ± 47 | decrease K562 proliferation | Emax ([1]; S4 Table, N-acyl piperidine-4-carboxamide series SAR, RIN1-ABL dose-response curve, read-out: Max Response (%)): 89.1%
8 | CN(C(=O)c1ccc(NC(=O)Cc2ccc(NC(=O)C3CCN(C(=O)c4cccc(F)c4)CC3)cc2)cc1)C1CC1 [compound 56844188] | 1350 | 86.8 | 75 ± 31 | decrease K562 proliferation | 
9 | CN(C(=O)c1ccc(NC(=O)Cc2ccc(NC(=O)C3CCN(C(=O)c4ccc(F)cc4)CC3)cc2)cc1)C1CC1 [compound 56844185] | 1060 | 85.2 | 57 ± 13 | decrease K562 proliferation | 
